Results from patent US12234257B2, “Triterpene saponin derivative and use thereof” (KOREA INSTITUTE OF SCIENCE AND TECHNOLOGY, priority 2020, dated 2025).

Key:
[1] = system: MPTP-induced in vivo PD model; assay: Rotarod test; design: species or system mice (C57BL/6j); details: MPTP 30 mg/kg i.p. mice; for behavioral performance in rotarod test (latency to fall): 2 hours and 24 hours after last MPTP
Protocol: In this study, all animal management and experimental protocols were performed in compliance with guidelines of the Institutional Animal Care and Use Committee of the Korea Institute of Science and Technology. 40 mice (C57BL/6j, male, 8 weeks old) were purchased from SLC Inc. (Shizuoka, Japan). After arrival, every four mice were hosed in each cage (30 cm×18.5 cm×13 cm) and allowed free access to feed and water. All mice were housed under the following constant conditions: lights on from 6:00 to 18:00, a temperature of 23° C.±1° C., and a humidity of 50%±10%. After 7 days of a habituation period, the mice were used in the experiments according to standard protocols. 40 mice were classified into five groups such that eight mice belonged to each group. After the habituation period, all mice were orally administered with a drug every day. […] Each mouse was administered with a single dose of saline/MPTP injection every day for 8 days. At 7 days after the final MPTP injection, all mice were sacrificed by cervical dislocation, and then the whole brain, SNpc, and striatum (ST) were excised for biochemical analysis. […] A rotarod test was performed according to a known method with minimal modification (Borlongan C. V. et al., Pharmacology Biochemistry and Behavior. 1995, 52:225; Hu X. et al., Neuropharmacology, 2017, 117:352). Briefly, the test consisted of a pretraining section and a test section. The pretraining section was performed for consecutive 4 days. The mice were positioned in a cylinder of a rotarod apparatus such that tails of all mice faced an operator and trained for 300 seconds at a constant speed of 16 rpm. During the 300 seconds, mice falling to the floor were placed back on the cylinder by the operator. All mice were trained three times in total every day at an interval of about 30 minutes before administration of MPTP. […] Latency to fall off the rotarod was recorded for each mouse. […] Latency to fall off the rotarod was measured for each mouse. […] An average time of three tests was calculated to evaluate balance, grip strength, and motor coordination.

[2] = system: MPTP-induced in vivo PD model; assay: Wire hanging test; design: species or system mice (C57BL/6j); details: MPTP mice
Protocol: In this study, all animal management and experimental protocols were performed in compliance with guidelines of the Institutional Animal Care and Use Committee of the Korea Institute of Science and Technology. 40 mice (C57BL/6j, male, 8 weeks old) were purchased from SLC Inc. (Shizuoka, Japan). After arrival, every four mice were hosed in each cage (30 cm×18.5 cm×13 cm) and allowed free access to feed and water. All mice were housed under the following constant conditions: lights on from 6:00 to 18:00, a temperature of 23° C.±1° C., and a humidity of 50%±10%. After 7 days of a habituation period, the mice were used in the experiments according to standard protocols. 40 mice were classified into five groups such that eight mice belonged to each group. After the habituation period, all mice were orally administered with a drug every day. […] Each mouse was administered with a single dose of saline/MPTP injection every day for 8 days. […] A time taken for the mouse to fall off the wire was recorded up to 300 seconds. On the day before MPTP administration, the test was performed three times for each mouse, and an average hanging time of three tests was analyzed as an index to evaluate balance, myofunction, and coordination. […] Average latency to fall off the wire onto the bedding material was calculated for each mouse.

DA level in ST = assay: Measurement of DA level in ST (ELISA); type: in vivo, mice (C57BL/6j); details: MPTP 30 mg/kg mice
Protocol: 40 mice were classified into five groups such that eight mice belonged to each group. After the habituation period, all mice were orally administered with a drug every day. While the mice of Groups 1 and 2 were administered with saline (p.o.), the mice of Groups 3, 4, and 5 were administered with 5 mg/kg ropinirole (p.o.), 5 mg/kg AKNS-2 (p.o.), and 15 mg/kg AKNS-2 (p.o.), respectively. […]
On the 7th day after the last administration of MPTP, SNpc and ST of each mouse were carefully excised and stored at −80° C. until use. […] A concentration of proteins contained in the supernatant was measured by the Bradford method. […]
DA levels in ST were measured using a competitive ELISA kit (Abnova, Taipei City, Taiwan) according to the manufacturer's instructions. […] After determining a concentration of proteins contained in the supernatant, the DA level in each brain sample was detected twice using the ELISA kit. Absorbance was measured using a microreader (BioTek, Vt., USA) at 450 nm, and the intensity was inversely proportional to the DA level. The DA level was expressed as ng/mg protein.

Structure (SMILES) | behavior performance in rotarod test (latency to fall) ([1]; 5 mg/kg p.o., at 24 hours) | behavioral performance in rotarod test (latency to fall) ([1]; 15 mg/kg p.o.) | behavior performance in wire hanging test ([2]; 15 mg/kg p.o., 2 hours and 24 hours) | DA level in ST (DA level in ST; 15 mg/kg p.o.) | behavioral performance in rotarod test (latency to fall) ([1]; 5 mg/kg p.o.) | latency to fall off in wire hanging test ([2]; 5 mg/kg p.o., 2 hours) | DA level in ST (DA level in ST; 5 mg/kg p.o.)
C[C@@H]1O[C@@H](O[C@@H]2[C@@H](O)[C@H](O[C@@H]3[C@@H](O[C@@H]4OC[C@@H](O)[C@H](O)[C@H]4O)[C@@H](O)[C@H](O[C@H]4[C@H](OC(=O)[C@]56CCC(C)(C)C[C@H]5C5=CC[C@@H]7[C@@]8(C)C[C@H](O)[C@H](O[C@@H]9O[C@H](CO)[C@@H](O)[C@H](O[C@@H]%10OC[C@@H](O)[C@H](O)[C@H]%10O)[C@H]9O)[C@@](C)(CO)[C@@H]8CC[C@@]7(C)[C@]5(C)C[C@H]6O)OC[C@H](O)[C@@H]4O)O[C@H]3C)OC[C@H]2O)[C@H](O)[C@H](O)[C@H]1O [Compound 1, 3-O-β-D-xylopyranosyl-(1→3)-β-D-glucopyranosylpolygalacic acid 28-O-α-L-rhamnopyranosyl-(1→3)-β-D-xylopyranosyl-(1→4)-[β-D-xylopyranosyl-(1→3)]-α-L-rhamnopyranosyl-(1→2)-α-L-arabinopyranosyl ester] | significantly improved MPTP-impaired behavior performance | the impairment was reversed | impaired behavior performance was significantly improved | the decrease in the DA level induced by MPTP was restored |  |  | 
CCCN(CCC)CCc1cccc2c1CC(=O)N2 [ropinirole, reference compound] |  |  |  |  | the impairment was reversed | improved latency deteriorated by MPTP | the decrease in the DA level induced by MPTP was restored
